The test system of this assay is cornea. In words: Esthesiometry assessment (Part 3): corneal sensitivity, anesthetic effect. Type of assay: in vivo, human. The conditions noted are these: for Anesthetic effect on the cornea (esthesiometry): single eye drop: tetracaine 0.5%, diclofenac 0.1%, compound I 2.5%. The source says:
Part 3 was an esthesiometry assessment to evaluate the anesthetic properties of compound I. Part 3 of the study had four arms, with compound I, vehicle, tetracaine (0.5% ophthalmic solution, used as a positive control) and diclofenac sodium (0.1% ophthalmic solution, used as the active NSAID comparator). Ocular anesthetic was selected because of its established anesthetic effect; however it is not the standard of care due to its negative effect on wound healing. NSAID is the current standard of care for corneal pain after PRK with minimal anesthetic but significant pain control properties. Vehicle eye drops were used as a negative control to enable better determination of the potential anesthetic effect. Twelve healthy subjects, who met the eligibility criteria, were randomized to receive a single eye drop of 4 study treatments, each during 1 of 4 different study days (Days 1, 4, 7 and 10). Each subject was randomized to receive the study treatment according to one of the following four sequences: • Sequence 1: Anesthetic, NSAID, compound I 2.5%, Vehicle • Sequence 2: NSAID, Vehicle, Anesthetic, compound I 2.5% • Sequence 3: Vehicle, compound I 2.5%, NSAID, Anesthetic • Sequence 4: compound I 2.5%, Anesthetic, Vehicle, NSAID
Inclusion Criteria: • Written informed consent was obtained before any assessment was performed. • Healthy male and female subjects aged 18 to 50 years (inclusive), and in good health as determined by past medical history, physical examination, vital signs, ECG, and laboratory tests at Screening. • At Screening, and Baseline, vital signs (systolic and diastolic blood pressure (BP) and pulse rate) were assessed in the sitting position after the subject had rested for at least 3 minutes and again after 3 minutes in the standing position. […] BMI=Body weight (kg)/[Height (m)]^2 • Subjects who were able to communicate well with the Investigator, to understand and comply with the requirements of the study. • For Part 3, subjects Baseline levels of eye sensitivity were to be in the range of 50 to 60 mm (inclusive) as measured by the Cochet-Bonnet esthesiometer.
The first-in-human study further evaluated potential anesthetic effect of topical ocular 2.5% compound I by esthesiometry testing, i.e. measurement of the filament length (cm) when the threshold of cornea touch is perceived.

These results are taken from patent US11234982B2, “Methods for treating ocular surface pain” (NOVARTIS AG, priority 2019, dated 2022).

As to `CCCCNc1ccc(C(=O)OCCN(C)C)cc1` [tetracaine, reference compound], the “Anesthetic effect on the cornea (esthesiometry)” value was “had an anesthetic effect”. In addition, the “Corneal sensitivity, least squares means, Test vs Ref: vs Diclofenac 0.1%” value (Tetracaine 0.5% (N=12) vs Diclofenac 0.1% (N=12) at 2.5, 10 and 20 minutes post-dose) was “statistical and clinical significance were observed”. In addition, for the setting “Tetracaine 0.5% (N=12) vs Vehicle (N=12) at 2.5, 10 and 20 minutes post-dose”, the “Corneal sensitivity, least squares means, Test vs Ref: vs Vehicle” value was “statistical and clinical significance were observed”.
`O=C(O)Cc1ccccc1Nc1c(Cl)cccc1Cl` [diclofenac, diclofenac sodium, reference compound]: the “Anesthetic effect on the cornea (esthesiometry)” value is recorded as “no anesthetic effect”.
